Test results as given in paper PMC8267945, “Plumbagin, a Natural Product with Potent Anticancer Activities, Binds to and Inhibits Dihydroorotase, a Key Enzyme in Pyrimidine Biosynthesis” (International Journal of Molecular Sciences, 2021).

Legend:
StDHOase = biological target: T1, StDHOase (Salmonella typhimurium, UniProt P06204); experiment: fluorescence quenching binding assay; set-up: species or system Salmonella enterica serovar Typhimurium LT2
T1 construct: made in house; host or cells: E. coli BL21(DE3)
Method: (§1) Figure 7 The data used to calculate the Kd values of various DHOases. (A) The fluorescence emission spectra of ScDHOase with PLU of different concentrations (0–200 μM; 0, 10, 20, 50, 75, 100, 125, 150, 175, and 200 μM). The decrease in intrinsic fluorescence of protein was measured at 324 nm upon excitation at 280 nm with a spectrofluorometer. […] (B) The fluorescence emission spectra of huDHOase with PLU of different concentrations (0–200 μM). (C) The fluorescence emission spectra of StDHOase with PLU of different concentrations. (D) The fluorescence emission spectra of ScDHOase–R18A with PLU of different concentrations. (E) The fluorescence emission spectra of ScDHOase–T106A with PLU of different concentrations. […] (F) An aliquot amount of PLU was added to the enzyme solution to determine the Kd. The Kd was obtained by the following equation: ΔF = ΔFmax − Kd(ΔF/[PLU]). Data points are an average of 2–3 determinations within a 10% error.
(§2) The decrease in the intrinsic fluorescence of DHOase was measured with a spectrofluorometer (Hitachi F-2700; Hitachi High-Technologies, Japan). The Kd was obtained using the following equation: ΔF = ΔFmax − Kd(ΔF/[PLU]).
(§3) The Kd value of the purified DHOase was determined using the fluorescence quenching method as previously described for DHOase, DHPase, and DnaB helicase. Briefly, an aliquot of the compound was added into the solution containing DHOase (1 μM) and 50 mM HEPES at pH 7.0. The decrease in the intrinsic fluorescence of DHOase was measured at 324 nm upon excitation at 280 nm and 25 °C with a spectrofluorometer (Hitachi F-2700; Hitachi High-Technologies, Japan). The Kd was obtained using the following equation: ΔF = ΔFmax − Kd(ΔF/[PLU]).

ScDHOase [1] = biological target: T2, ScDHOase (Saccharomyces cerevisiae, UniProt P20051); experiment: rapid spectrophotometric DHOase enzyme assay (hydrolysis of DHO); type: biochemical
T2 construct: made in house; host or cells: E. coli BL21(DE3)
Method: PLU (50 μM) was included in the standard assay for analyzing the enzyme activity under different substrate concentrations. […] Data points are an average of three determinations within the 10% error.
A rapid spectrophotometric assay was used to determine the activity of DHOase. Briefly, the hydrolysis of DHO was measured at 25 °C as the decrease in absorbance at 230 nm. The purified DHOase was added to a 2 mL solution containing 0.5 mM DHO and 100 mM Tris–HCl at pH 8.0 to start the reaction. The extinction coefficient of DHO was 0.92 mM^−1·cm^−1 at 230 nm. The hydrolysis of DHO was monitored using a UV/Vis spectrophotometer (Hitachi U 3300; Hitachi High-Technologies, Tokyo, Japan). A unit of activity was defined as the amount of enzyme catalyzing the hydrolysis of 1 μmol DHO/min, and the specific activity was expressed in terms of units of activity per mg of enzyme. The kinetic parameters Km and Vmax were determined from a nonlinear plot by fitting the hydrolyzing rate from individual experiments to the Michaelis–Menten equation (Enzyme Kinetics module of Sigma-Plot; Systat Software, Chicago, IL, USA).

[2] = system: S. enterica serovar Typhimurium LT2; experiment: bacterial growth inhibition; type: cell-based; conditions: 100 μM PLU added at 0.5 OD600, 37 °C
Method: (§4) Figure 8 Anticancer and antibacterial activities of PLU. (A) The trypan blue assay—4T1 cells incubated with PLU (10 μM). After 24 h, the anticancer potentiality was estimated. (B) The wound-healing assay—4T1 cells were seeded in 24-well plates. Cells were incubated with PLU (10 μM) for 24 h to allow migration. (C) Hoechst staining assay—an amount of 10 μM PLU-induced apoptosis with DNA fragmentation was observed. […] (E) Effects of PLU on cell survival, migration and proliferation, and nuclear condensation—a concentration of 10 μM PLU was effective for anti-4T1 cancer cells. (F) PLU inhibited bacterial growth—K. pneumoniae and S. enterica serovar Typhimurium LT2 cells were grown to 0.5 OD600 at 37 °C, and then PLU was added into the medium. […] PLU may inhibit the pyrimidine biosynthesis, resulting in its antibacterial activities.
(§5) Similar to cancer cells, bacterial cells are rapidly reproducible, and their growth might be suppressed by PLU. To test whether PLU could inhibit bacterial growth, we grew Klebsiella pneumoniae and S. enterica serovar Typhimurium LT2 cells to 0.5 OD600 at 37 °C, and then added PLU into the medium. […] Thus, PLU was also effective for antipathogen chemotherapies. PLU may inhibit pyrimidine biosynthesis, resulting in antibacterial activities.

Klebsiella pneumoniae = experiment: bacterial growth inhibition; type: cell-based; conditions: 100 μM PLU added at 0.5 OD600, 37 °C
Method: as §4, §5

huDHOase = biological target: T3, huDHOase (Homo sapiens, UniProt P27708); experiment: fluorescence quenching binding assay
T3 construct: huDHOase1456-1846-NdeI-N; made in house; host or cells: E. coli BL21(DE3)
T3 sequence (P27708 1456-1846): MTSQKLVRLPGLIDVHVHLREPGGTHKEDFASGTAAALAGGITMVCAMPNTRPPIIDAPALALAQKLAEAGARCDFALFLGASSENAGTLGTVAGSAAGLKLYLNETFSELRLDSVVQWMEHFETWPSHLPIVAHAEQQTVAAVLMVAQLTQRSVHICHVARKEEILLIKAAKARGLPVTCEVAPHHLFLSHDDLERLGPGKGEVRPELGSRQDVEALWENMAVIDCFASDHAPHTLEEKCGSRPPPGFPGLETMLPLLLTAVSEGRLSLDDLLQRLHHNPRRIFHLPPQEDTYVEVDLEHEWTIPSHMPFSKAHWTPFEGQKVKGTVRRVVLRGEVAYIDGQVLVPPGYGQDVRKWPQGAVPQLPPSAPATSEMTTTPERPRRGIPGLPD
Method: as §1, §2, §3

ScDHOase–T106A = biological target: T4, ScDHOase–T106A (Saccharomyces cerevisiae, UniProt P20051, T106A); experiment: fluorescence quenching binding assay
T4 construct: made in house; host or cells: E. coli BL21(DE3)
Method: as §1, §2, §3

ScDHOase [3] = biological target: T2, ScDHOase; experiment: fluorescence quenching binding assay
Method: as §1, §2, §3

ScDHOase–R18A = biological target: T5, ScDHOase–R18A (Saccharomyces cerevisiae, UniProt P20051, R18A); experiment: fluorescence quenching binding assay
T5 construct: made in house; host or cells: E. coli BL21(DE3)
Method: as §1, §2, §3

T4 sequence (P20051 whole entry T106A): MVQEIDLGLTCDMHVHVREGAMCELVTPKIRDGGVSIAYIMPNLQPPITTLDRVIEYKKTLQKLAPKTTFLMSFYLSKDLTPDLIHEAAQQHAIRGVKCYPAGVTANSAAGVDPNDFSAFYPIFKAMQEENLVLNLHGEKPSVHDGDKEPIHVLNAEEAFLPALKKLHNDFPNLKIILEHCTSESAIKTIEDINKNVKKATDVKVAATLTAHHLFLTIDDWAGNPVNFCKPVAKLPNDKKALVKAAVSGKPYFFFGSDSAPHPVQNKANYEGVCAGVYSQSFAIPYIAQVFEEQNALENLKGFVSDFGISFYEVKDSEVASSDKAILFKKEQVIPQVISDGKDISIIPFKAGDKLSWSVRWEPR
T2 sequence (P20051 whole entry): as the sequence (P20051 whole entry T106A) above, with A106T counted along it
T1 sequence (P06204 whole entry): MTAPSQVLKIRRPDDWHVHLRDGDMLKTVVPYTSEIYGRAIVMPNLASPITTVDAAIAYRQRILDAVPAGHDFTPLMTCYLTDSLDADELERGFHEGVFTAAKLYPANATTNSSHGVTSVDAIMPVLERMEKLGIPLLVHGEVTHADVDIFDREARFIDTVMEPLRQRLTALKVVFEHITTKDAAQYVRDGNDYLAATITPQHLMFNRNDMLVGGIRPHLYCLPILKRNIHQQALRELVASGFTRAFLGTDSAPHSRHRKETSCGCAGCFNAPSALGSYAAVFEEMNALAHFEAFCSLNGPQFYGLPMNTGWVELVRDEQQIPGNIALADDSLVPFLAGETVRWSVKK
T5 sequence (P20051 whole entry R18A): as the sequence (P20051 whole entry T106A) above, with R18A, A106T counted along it

With `CC1=CC(=O)c2c(O)cccc2C1=O` [PLU, plumbagin] the Kd (StDHOase) was 80.3 ± 2.5 µM, the “quenching of StDHOase” value (StDHOase; PLU 0–200 μM) was 85.9% and the “λem shift of StDHOase” value (StDHOase; PLU 0–200 μM) was 11.0 nm. The “λmax of StDHOase emission” value (StDHOase; PLU 0–200 μM) was “from 330.5 to 319.5”, the “inhibition type (Lineweaver–Burk plot)” value (ScDHOase [1]; PLU 50 μM, different substrate concentrations) was “competitive inhibitor” and the “Vmax of ScDHOase in the presence of PLU” value (ScDHOase [1]; PLU 50 μM, without PLU 69.9 ± 1.0) was 64.1 ± 2.8 µmol/mg/min. The “decrease of the activity of ScDHOase” value (ScDHOase [1]; PLU 200 μM) was 66%, the “growth of S. enterica serovar Typhimurium LT2” value [2] was “significantly inhibited the growth” and the “growth of K. pneumoniae” value (Klebsiella pneumoniae) was “significantly inhibited the growth”. The “quenching of huDHOase” value (huDHOase; PLU 0–200 μM) was 75.6%, the “λem shift of huDHOase” value (huDHOase; PLU 0–200 μM) was 1.5 nm and the “λmax of huDHOase emission” value (huDHOase; PLU 0–200 μM) was “from 340 to 338.5”. The Kd (huDHOase; fluorescence quenching titration curve) was 151 ± 4.1 µM, the Kd (ScDHOase–T106A) was 70.8 ± 2.6 µM and the “quenching of ScDHOase–T106A” value (ScDHOase–T106A; PLU 0–200 μM) was 90.0%. For the same compound, the “λem shift of ScDHOase–T106A” value (ScDHOase–T106A; PLU 0–200 μM) was 6.5 nm, the “λmax of ScDHOase–T106A emission” value (ScDHOase–T106A; PLU 0–200 μM) was “from 328 to 321.5” and the Kd (ScDHOase [3]) was 64.8 ± 1.6 µM. For the same compound, the “quenching of the intrinsic fluorescence of ScDHOase” value (ScDHOase [3]; 200 μM compound, 324 nm, excitation 280 nm) was 87.7%, the “λmax of ScDHOase emission” value (ScDHOase [3]; PLU 0–200 μM) was “from 324 to 317.5” and the “λem shift of ScDHOase” value (ScDHOase [3]; PLU 0–200 μM, blue shift) was 6.5 nm. The Kd (ScDHOase–R18A) was 181 ± 5.9 µM, the “quenching of ScDHOase–R18A” value (ScDHOase–R18A; PLU 0–200 μM) was 75.1% and the “λem shift of ScDHOase–R18A” value (ScDHOase–R18A; PLU 0–200 μM) was 4.0 nm. The “λmax of ScDHOase–R18A emission” value (ScDHOase–R18A; PLU 0–200 μM) was “from 324.5 to 320.5”.
